BindingDB's records for patent US20230271968 (Beijing Tide Pharmaceutical, 2023)

Target: Serine/threonine-protein kinase ATR (Homo sapiens, UniProt Q13535)
Test: Assay of ATR Kinase Activity
Method: The amount of phosphorylated protein was determined by time-resolved fluorescence in this assay. The amount of phosphorylated protein was detected by anti-p53-phospho-(serine 15)-K-specific antibody (Cisbio, art. No.: 61GSTDLA) and d2 labeled anti-GST antibody (Cisbio, art. No. 61P08KAE). […] The reagents used above were purchased from Sigma or Invitrogen, except for those whose manufacturers were mentioned.

Serine/threonine-protein kinase ATR, sequence (Q13535 whole entry): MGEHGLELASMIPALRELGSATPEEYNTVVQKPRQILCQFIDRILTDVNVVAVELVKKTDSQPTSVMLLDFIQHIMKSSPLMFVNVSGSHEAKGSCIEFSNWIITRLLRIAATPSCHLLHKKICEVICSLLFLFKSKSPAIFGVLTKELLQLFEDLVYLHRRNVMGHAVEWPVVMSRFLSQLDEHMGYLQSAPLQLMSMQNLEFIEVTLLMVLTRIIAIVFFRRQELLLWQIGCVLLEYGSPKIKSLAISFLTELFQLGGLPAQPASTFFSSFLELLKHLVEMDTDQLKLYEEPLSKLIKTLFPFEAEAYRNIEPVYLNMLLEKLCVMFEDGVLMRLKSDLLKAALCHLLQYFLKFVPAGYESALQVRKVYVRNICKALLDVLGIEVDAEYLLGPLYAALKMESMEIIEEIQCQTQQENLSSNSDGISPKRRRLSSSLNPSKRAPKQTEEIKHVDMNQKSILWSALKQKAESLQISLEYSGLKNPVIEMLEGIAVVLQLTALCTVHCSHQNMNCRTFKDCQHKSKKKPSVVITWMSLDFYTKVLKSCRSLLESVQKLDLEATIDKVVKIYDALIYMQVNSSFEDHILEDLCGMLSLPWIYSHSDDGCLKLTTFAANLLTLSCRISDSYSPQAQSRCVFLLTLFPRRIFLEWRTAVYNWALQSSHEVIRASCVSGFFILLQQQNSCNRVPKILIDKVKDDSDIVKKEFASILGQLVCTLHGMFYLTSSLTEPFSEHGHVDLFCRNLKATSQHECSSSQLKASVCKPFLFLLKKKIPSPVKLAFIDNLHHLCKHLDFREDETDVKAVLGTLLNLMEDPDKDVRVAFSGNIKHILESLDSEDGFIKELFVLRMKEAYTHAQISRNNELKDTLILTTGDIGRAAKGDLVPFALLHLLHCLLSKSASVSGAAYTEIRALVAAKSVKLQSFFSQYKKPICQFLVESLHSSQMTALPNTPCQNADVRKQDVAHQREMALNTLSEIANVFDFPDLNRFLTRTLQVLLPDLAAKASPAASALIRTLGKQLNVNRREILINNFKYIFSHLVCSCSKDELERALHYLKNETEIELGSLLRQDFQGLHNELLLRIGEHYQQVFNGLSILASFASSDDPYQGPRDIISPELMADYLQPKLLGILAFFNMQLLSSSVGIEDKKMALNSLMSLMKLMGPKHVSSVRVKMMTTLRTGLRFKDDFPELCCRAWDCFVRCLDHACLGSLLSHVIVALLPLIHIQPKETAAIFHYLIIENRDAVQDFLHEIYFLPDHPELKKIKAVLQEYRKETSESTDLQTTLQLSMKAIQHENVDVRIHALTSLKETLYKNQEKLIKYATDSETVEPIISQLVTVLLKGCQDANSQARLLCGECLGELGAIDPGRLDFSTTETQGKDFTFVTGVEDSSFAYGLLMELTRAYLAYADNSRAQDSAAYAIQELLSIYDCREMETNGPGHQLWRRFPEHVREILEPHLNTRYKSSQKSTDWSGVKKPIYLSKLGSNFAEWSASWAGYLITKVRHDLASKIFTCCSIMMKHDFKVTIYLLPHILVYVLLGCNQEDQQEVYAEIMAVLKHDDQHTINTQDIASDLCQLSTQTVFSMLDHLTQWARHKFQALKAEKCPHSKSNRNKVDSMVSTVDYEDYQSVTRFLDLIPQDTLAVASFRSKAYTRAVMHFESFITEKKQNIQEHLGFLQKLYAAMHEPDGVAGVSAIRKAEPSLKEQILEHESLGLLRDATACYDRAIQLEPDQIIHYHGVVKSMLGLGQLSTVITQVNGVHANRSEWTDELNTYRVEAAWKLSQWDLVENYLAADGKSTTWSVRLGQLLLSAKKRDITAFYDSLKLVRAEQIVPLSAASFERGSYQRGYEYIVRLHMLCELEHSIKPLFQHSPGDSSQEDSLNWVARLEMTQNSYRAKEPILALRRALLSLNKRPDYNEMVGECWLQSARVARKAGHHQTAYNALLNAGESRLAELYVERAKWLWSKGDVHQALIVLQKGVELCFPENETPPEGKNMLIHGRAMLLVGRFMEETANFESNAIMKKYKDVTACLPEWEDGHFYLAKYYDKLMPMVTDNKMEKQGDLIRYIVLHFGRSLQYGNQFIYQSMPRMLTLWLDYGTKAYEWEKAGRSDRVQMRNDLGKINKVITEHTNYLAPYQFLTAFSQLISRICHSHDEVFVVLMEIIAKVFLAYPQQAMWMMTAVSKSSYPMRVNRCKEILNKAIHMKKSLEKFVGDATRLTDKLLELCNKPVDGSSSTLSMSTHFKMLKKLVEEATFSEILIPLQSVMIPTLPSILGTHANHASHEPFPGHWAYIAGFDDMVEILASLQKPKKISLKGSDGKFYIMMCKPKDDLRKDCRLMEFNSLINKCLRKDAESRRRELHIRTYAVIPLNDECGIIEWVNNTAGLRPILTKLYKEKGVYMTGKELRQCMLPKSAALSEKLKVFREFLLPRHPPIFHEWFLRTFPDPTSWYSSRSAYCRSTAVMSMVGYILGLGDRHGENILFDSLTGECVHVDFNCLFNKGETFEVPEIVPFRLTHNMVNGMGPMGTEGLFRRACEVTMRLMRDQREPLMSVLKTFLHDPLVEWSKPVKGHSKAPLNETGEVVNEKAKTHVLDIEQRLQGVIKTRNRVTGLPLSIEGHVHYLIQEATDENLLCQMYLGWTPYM

In the case of `Cc1nn(-c2cncc(C#N)c2)c(C)c1-c1cc(N2CCOC[C@H]2C)nc2c(-c3ccn[nH]3)cnn12` [US20230271968, Compound A11], the IC50 is reported as 9 nM.
